# Reference: US20240025912A1 (Merck Sharp & Dohme LLC, priority 2022, published 2024)
# Target: GST-RIPK1 (recombinant GST-RIPK1 kinase domain (residues 1-327)) (Homo sapiens (Human), UniProt Q13546)
# Test: RIPK1-ADP-Glo Enzymatic Assay
# Type: biochemical
# Conditions: 25 nM GST-RIPK1, 300 μM ATP, 3 μM dephosphorylated-MBP, 30 min pre-incubation, 150 min reaction
# Method: The enzymatic activity of RIPK1 is measured using an assay derived from ADP-Glo kit (TMPromega), which provides a luminescent-based ADP detection system. Specifically, the ADP generated by RIPK1 kinase is proportionally detected as luminescent signals in a homogenous fashion. In this context, the assessment of the inhibitory effect of small molecules (EC50) is measured by the effectiveness of the compounds to inhibit the ATP to ADP conversion by RIPK1.
# In this assay, the potency (EC50) of each compound was determined from a ten-point (1:3 serial dilution; top compound concentration of 100000 nM) titration curve using the following outlined procedure. To each well of a white ProxiPlus 384 well-plate, 30 nL of compound (1% DMSO in final assay volume of 3 μL) was dispensed, followed by the addition of 2 μL of 1× assay buffer (25 mM Hepes 7.3, 20 mM MgCl2, 50 mM NaCl, 1 mM DTT, 0.005% Tween20, and 0.02% BSA) containing 37.5 nM of GST-RIPK1 (recombinant GST-RIPK1 kinase domain (residues 1-327) enzyme produced from baculovirus-transfected Sf21 cells: MW 62 kDa). Plates were placed in an ambient temperature humidified chamber for a 30 min pre-incubation with compound. Subsequently, each reaction was initiated by the addition of 1 μL 1× assay buffer containing 900 μM ATP and 3 μM dephosphorylated-MBP substrate. The final reaction in each well of 3 μL consists of 25 nM of GST-RIPK1, 300 μM ATP, and 3 μM dephosphorylated-MBP. Kinase reactions were allowed to proceed for 150 min prior to adding ADP-Glo reagents per Promega's outlined kit protocol. Dose-response curves were generated by plotting percent effect (% product conversion; Y-axis) vs. Log 10 compound concentrations (X-axis). EC50 values were calculated using a non-linear regression, four-parameters sigmoidal dose-response model.
# Chain of GST-RIPK1 (recombinant GST-RIPK1 kinase domain (residues 1-327)) (Q13546 1-327): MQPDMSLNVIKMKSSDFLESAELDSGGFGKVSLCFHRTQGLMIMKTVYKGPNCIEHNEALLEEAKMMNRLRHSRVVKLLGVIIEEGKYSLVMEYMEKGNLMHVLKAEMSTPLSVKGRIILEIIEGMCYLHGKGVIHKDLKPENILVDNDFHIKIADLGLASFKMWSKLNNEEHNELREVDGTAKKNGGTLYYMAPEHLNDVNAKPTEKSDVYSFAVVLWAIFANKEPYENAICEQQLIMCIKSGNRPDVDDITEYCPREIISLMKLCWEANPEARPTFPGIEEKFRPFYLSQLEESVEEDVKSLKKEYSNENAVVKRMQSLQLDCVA
row,SMILES,EC50 [nM]
1,"COc1ccc([C@@H]2CCc3nn(C45CC(F)(C4)C5)c(=O)n32)cc1 [Compound 1-66, (S)-2-(3-fluorobicyclo[1.1.1]pentan-1-yl)-5-(4-methoxyphenyl)-2,5,6,7-tetrahydro-3H-pyrrolo[2,1-c][1,2,4]triazol-3-one]",85.8
2,"Cc1c(F)cc([C@@H]2CCc3nn(C45CC(C#N)(C4)C5)c(=O)n32)cc1F [Compound 1-51, (S)-3-(5-(3,5-difluoro-4-methylphenyl)-3-oxo-6,7-dihydro-3H-pyrrolo[2,1-c][1,2,4]triazol-2(5H)-yl)bicyclo[1.1.1]pentane-1-carbonitrile]",16.1
3,"CC1Cc2nn(C34CC(C#N)(C3)C4)c(=O)n2C1c1cc(F)cc(F)c1 (single isomer, unassigned) [Compound 1-52, 3-[5-(S or R)-(3,5-difluorophenyl)-6-(S or R)-methyl-3-oxo-6,7-dihydro-3H-pyrrolo[2,1-c][1,2,4]triazol-2(5H)-yl]bicyclo[1.1.1]pentane-1-carbonitrile]",601
4,"O=c1n(C23CC(F)(C2)C3)nc2n1[C@H](c1cc(F)c(F)c(F)c1)CC2 [Compound 1-76, (S)-2-(3-fluorobicyclo[1.1.1]pentan-1-yl)-5-(3,4,5-trifluorophenyl)-2,5,6,7-tetrahydro-3H-pyrrolo[2,1-c][1,2,4]triazol-3-one]",27.5
5,"O=c1n(C23CCC(C2)C3)nc2n1[C@H](c1cc(F)cc(F)c1)CC2 [Compound 1-4, (5S)-2-(bicyclo[2.1.1]hexan-1-yl)-5-(3,5-difluorophenyl)-2,5,6,7-tetrahydro-3H-pyrrolo[2,1-c][1,2,4]triazol-3-one]",31.1
6,"CC(F)(F)C12CC(n3nc4n(c3=O)[C@H](c3ccccc3)CC4)(C1)C2 [Compound 1-32, (5S)-2-[3-(1,1-difluoroethyl)bicyclo[1.1.1]pentan-1-yl]-5-phenyl-2,5,6,7-tetrahydro-3H-pyrrolo[2,1-c][1,2,4]triazol-3-one]",36.4
7,"O=c1n(C23CCC(C2)C3)nc2n1[C@H](c1cnccn1)CC2 [Compound 1-61, (S)-2-(bicyclo[2.1.1]hexan-1-yl)-5-(pyrazin-2-yl)-2,5,6,7-tetrahydro-3H-pyrrolo[2,1-c][1,2,4]triazol-3-one]",696
8,"O=c1n(C23CC(F)(C2)C3)nc2n1[C@H](c1ccccc1)COC2 [Compound 1-78, (R)-2-(3-fluorobicyclo[1.1.1]pentan-1-yl)-5-phenyl-2,5,6,8-tetrahydro-3H-[1,2,4]triazolo[3,4-c][1,4]oxazin-3-one]",93.9
9,"N#CC12CCC(n3nc4n(c3=O)[C@H](c3cc(F)cc(F)c3)CC4)(CC1)C2 [Compound 1-29, 4-[(5S)-5-(3,5-difluorophenyl)-3-oxo-6,7-dihydro-3H-pyrrolo[2,1-c][1,2,4]triazol-2(5H)-yl]bicyclo[2.2.1]heptane-1-carbonitrile]",68
10,"N#CC12CC(n3nc4n(c3=O)[C@H](c3cc(F)cc(F)c3)CS4)(C1)C2 [Compound 1-65, (R)-3-(5-(3,5-difluorophenyl)-3-oxo-5,6-dihydrothiazolo[2,3-c][1,2,4]triazol-2(3H)-yl)bicyclo[1.1.1]pentane-1-carbonitrile]",21.1
11,"N#CC12CC(n3nc4n(c3=O)[C@H](c3c(F)cccc3F)CC4)(C1)C2 [Compound 1-43, (S)-3-(5-(2,6-difluorophenyl)-3-oxo-6,7-dihydro-3H-pyrrolo[2,1-c][1,2,4]triazol-2(5H)-yl)bicyclo[1.1.1]pentane-1-carbonitrile]",57.7
12,"Cc1c(F)cc([C@@H]2CCc3nn(C45CC(F)(C4)C5)c(=O)n32)cc1Cl [Compound 1-72, (S)-5-(3-chloro-5-fluoro-4-methylphenyl)-2-(3-fluorobicyclo[1.1.1]pentan-1-yl)-2,5,6,7-tetrahydro-3H-pyrrolo[2,1-c][1,2,4]triazol-3-one]",21.2
13,"N#CC12CC(n3nc4n(c3=O)[C@H](c3cc(F)cc(F)c3)CC4)(C1)C2(F)F [Compound 3-1, 3-[(5S)-5-(3,5-difluorophenyl)-3-oxo-6,7-dihydro-3H-pyrrolo[2,1-c][1,2,4]triazol-2(5H)-yl]-2,2-difluorobicyclo[1.1.1]pentane-1-carbonitrile]",20

# Other lines, results leading:
row,EC50 [nM],SMILES
1,38.8,"O=c1n(C23CC(F)(C2)C3)nc2n1[C@H](c1cnccn1)C[C@@H]2F [Compound 4-17, (5S,7S)-7-fluoro-2-(3-fluorobicyclo[1.1.1]pentan-1-yl)-5-(pyrazin-2-yl)-2,5,6,7-tetrahydro-3H-pyrrolo[2,1-c][1,2,4]triazol-3-one]"
2,90.2,"N#CC12CC(n3nc4n(c3=O)[C@H](c3ccc(C(F)F)cc3)CC4)(C1)C2 [Compound 7-1, (S)-3-(5-(4-(difluoromethyl)phenyl)-3-oxo-6,7-dihydro-3H-pyrrolo[2,1-c][1,2,4]triazol-2(5H)-yl)bicyclo[1.1.1]pentane-1-carbonitrile]"
3,143,"COC(=O)C12CC(n3nc4n(c3=O)[C@H](c3ccccc3)CC4)(C1)C2(F)F [Compound 3-2, methyl (S)-2,2-difluoro-3-(3-oxo-5-phenyl-6,7-dihydro-3H-pyrrolo[2,1-c][1,2,4]triazol-2(5H)-yl)bicyclo[1.1.1]pentane-1-carboxylate]"
4,21.9,"O=c1n(C23CC(F)(C2)C3)nc2n1[C@H](c1ccccc1)CC2F (single isomer, unassigned) [Compound 6-4, (5S)-7-(S or R)-fluoro-2-(3-fluorobicyclo[1.1.1]pentan-1-yl)-5-phenyl-2,5,6,7-tetrahydro-3H-pyrrolo[2,1-c][1,2,4]triazol-3-one]"
5,274,"N#CC12CC(n3nc4n(c3=O)[C@H](c3cc(F)cc(F)c3)CC4F)(C1)C2 (single isomer, unassigned) [Compound 6-5, 3-[(5S)-5-(3,5-difluorophenyl)-7-(S or R)-fluoro-3-oxo-6,7-dihydro-3H-pyrrolo[2,1-c][1,2,4]triazol-2(5H)-yl]bicyclo[1.1.1]pentane-1-carbonitrile]"
6,259,"COc1cc(F)cc(C2CCc3nn(C45CC(F)(C4)C5)c(=O)n32)c1 (racemic) [Compound 4-2, (±)-5-(3-fluoro-5-methoxyphenyl)-2-(3-fluorobicyclo[1.1.1]pentan-1-yl)-2,5,6,7-tetrahydro-3H-pyrrolo[2,1-c][1,2,4]triazol-3-one]"
7,20.5,"N#CC12CC(n3nc4n(c3=O)[C@H](c3cc(F)cc(F)c3)CC4F)(C1)C2 (single isomer, unassigned) [Compound 6-6, 3-[(5S)-5-(3,5-difluorophenyl)-7-(S or R)-fluoro-3-oxo-6,7-dihydro-3H-pyrrolo[2,1-c][1,2,4]triazol-2(5H)-yl]bicyclo[1.1.1]pentane-1-carbonitrile]"
8,53.8,"O=c1n(C23CC(F)(C2)C3)nc2n1C(c1cccc(F)c1F)CC2 (racemic) [Compound 4-5, (±)-5-(2,3-difluorophenyl)-2-(3-fluorobicyclo[1.1.1]pentan-1-yl)-2,5,6,7-tetrahydro-3H-pyrrolo[2,1-c][1,2,4]triazol-3-one]"
9,17,"Cc1cc(F)cc([C@@H]2CCc3nn(C45CC(F)(C4)C5)c(=O)n32)c1 [Compound 4-9, (S)-5-(3-fluoro-5-methylphenyl)-2-(3-fluorobicyclo[1.1.1]pentan-1-yl)-2,5,6,7-tetrahydro-3H-pyrrolo[2,1-c][1,2,4]triazol-3-one]"
